Measurements from ChEMBL document CHEMBL5143581, “Design, synthesis and molecular docking studies of imidazole and benzimidazole linked ethionamide derivatives as inhibitors of InhA and antituberculosis agents” (Bioorg Med Chem Lett, 2022).
Converted amounts (≈) assume the structure as drawn.

What was measured:
[1] = system: Mycobacterium tuberculosis; assay: Antimycobacterial activity against Mycobacterium tuberculosis H37Rv; type: functional
[2] = system: Vero; assay: Cytotoxicity in African green monkey Vero cells assessed as reduction in cell viability; type: toxicity, cell-based; details: chlorocebus sabaeus

Compound	MIC [1]	Activity [2]
Cc1ccc2c(c1)nc(NC(=O)c1cc(C(N)=S)ccn1)n2C	3.14 µM (≈ 1.02 µg/mL)	> 100 µM
Cc1cn(C)c(NC(=O)c2cc(C(N)=S)ccn2)n1	13.6 µM (≈ 3.75 µg/mL)	> 100 µM
O=C(O)c1cn(C2CC2)c2cc(N3CCNCC3)c(F)cc2c1=O [CIPROFLOXACIN]	4.73 µM (≈ 1.57 µg/mL)	> 100 µM
Cn1cc(C#N)nc1NC(=O)c1cc(C(N)=S)ccn1	1.24 µM (≈ 0.355 µg/mL)	> 100 µM
CC[C@@H](CO)NCCN[C@@H](CC)CO [ETHAMBUTOL]	5.01 µM (≈ 1.02 µg/mL)	> 100 µM
CCc1cc(C(N)=S)ccn1 [ETHIONAMIDE]	6.63 µM (≈ 1.1 µg/mL)	> 100 µM
Cn1ccnc1NC(=O)c1cc(C(N)=S)ccn1	15.1 µM (≈ 3.95 µg/mL)	> 100 µM
NC(=S)c1ccnc(C(=O)Nc2nc3ccccc3[nH]2)c1	12.6 µM (≈ 3.73 µg/mL)	> 100 µM
NNC(=O)c1ccncc1 [ISONIAZID]	0.36 µM (≈ 0.0494 µg/mL)	> 100 µM
NC(=O)c1cnccn1 [PYRAZINAMIDE]	3.12 µM (≈ 0.384 µg/mL)	> 100 µM
COc1ccc2c(c1)nc(NC(=O)c1cc(C(N)=S)ccn1)n2C	0.35 µM (≈ 0.119 µg/mL)	> 100 µM
NC(=S)c1ccnc(C(=O)Nc2ncc[nH]2)c1	23.8 µM (≈ 5.9 µg/mL)	> 100 µM
Cn1cc(O)nc1NC(=O)c1cc(C(N)=S)ccn1	0.97 µM (≈ 0.269 µg/mL)	> 100 µM
Cn1c(NC(=O)c2cc(C(N)=S)ccn2)nc2ccccc21	6.52 µM (≈ 2.03 µg/mL)	> 100 µM
Cn1c(NC(=O)c2cc(C(N)=S)ccn2)nc2cc(O)ccc21	0.27 µM (≈ 0.0884 µg/mL)	> 100 µM
